Laboratory results taken from patent US20100209960A1, “METHOD FOR MEASURING MITOCHONDRIAL MEMBRANE POTENTIAL IN VERTEBRATE CELLS” (MERCK SHARP & DOHME CORP., priority 2007, published 2010).

Assays:
[1] = tested on: mitochondrial membrane potential in CHO—K1 cells; experiment: cells; assay type: cell-based; conditions: for EC50: Cricetulus griseus, read-out: EC50 (decrease of mitochondrial membrane potential)
Method: 24 hours before assay, CHO—K1 cells were seeded in a 384 well plate at 75,000 cells per well in 50 μl growth medium (Iscove's Modified Dulbecco's Medium Invitrogen, 12440-046, 10% Fetal Bovine Serum (Invitrogen, 26140-095), 1× HT Supplement (Invitrogen, 11067-030) 1× Penicillin-Streptomycin solution (Hyclone, SV30010) 2 mM Glutamine (Hyclone, SH30034.01). Cells were then incubated overnight at 37° C., 5% carbon dioxide. When commencing the assay, 50 μl of assay buffer (50 mM Hepes, pH 7.4 150 mM KCL, 1600 mM NaCl, 25 mM D-(+)-glucose) was added to cells. […] 10 μl of 9 μM fluorescent dye TMRM (in 10% DMSO) was added and cells are incubated for 20 minutes at room temperature. 10 μl of 16 mM Brilliant Black BN prepared in D-PBS was added to yield a 1.6 mM final concentration of Brilliant Black BN. The fluorescence was immediately read on a Molecular Devices Analyst HT fluorescent plate reader, using an excitation wavelength of 530 nm and measuring the emission at 580 nm.
24 hours before assay, CHO—K1 cells were seeded in a 384 well plate at 75,000 cells per well in 50 μl growth medium (Iscove's Modified Dulbecco's Medium, lnvitrogen, 12440-046, 10% Fetal Bovine Serum (Invitrogen, 26140-095), 1× HT Supplement (Invitrogen, 11067-030) 1× Penicillin-Streptomycin solution (Hyclone, SV30010) 2 mM Glutamine (Hyclone, SH30034.01). Cells were then incubated overnight at 37° C., 5% carbon dioxide. When commencing the assay, 50 μl of assay buffer (50 mM Hepes, pH 7.4 150 mM KCL, 1600 mM NaCl, 25 mM D-(+)-glucose) was added to cells. 1 μl of the various amounts of the cation ionophore, H+—K+ antiporter, nigericin, was added and the cells are then incubated for 30 minutes at 37° C., 5% carbon dioxide. 10 μl of 9 μM fluorescent dye TMRM (in 10% DMSO) was added and cells are incubated for 20 minutes at room temperature. 10 μl of 16 mM Brilliant Black BN prepared in D-PBS was added yield a 1.6 mM final concentration of Brilliant Black BN. The fluorescence was immediately read on a Molecular Devices Analyst HT fluorescent plate reader, using an excitation wavelength of 530 nm and measuring the emission at 580 nm.

[2] = tested on: mitochondrial membrane potential in CHO—K1 cells; experiment: Homogeneous TMRM/Brilliant Black BN mitochondrial membrane potential assay, 1536 well plate; assay type: cell-based; conditions: Cricetulus griseus, 0.5 h, 30 minutes incubation, TMRM fluorescence, read-out: EC50 (decrease of mitochondrial membrane potential)
Method: 24 hours before assay, CHO—K1 cells were seeded in a 1536 well plate at 10,000 cells per well in 4 μl growth medium (Iscove's Modified Dulbecco's Medium Invitrogen, 12440-046, 10% Fetal Bovine Serum (Invitrogen, 26140-095), 1×HT Supplement (Invitrogen, 11067-030) 1× Penicillin-Streptomycin solution (Hyclone, SV30010) 2 mM Glutamine (Hyclone, SH30034.01). Cells were then incubated overnight at 37° C., 5% carbon dioxide. When commencing the assay, 4 μl of assay buffer (50 mM Hepes, pH 7.4 150 mM KCL, 1600 mM NaCl, 25 mM D-(+)-glucose) was added to cells. 80 nl of various amounts of the mitochondrial uncoupling compound, CCCP, was added and the cells were then incubated for 30 minutes at 37° C., 5% carbon dioxide. 0.8 μl of 6 μM fluorescent dye TMRM (in 20% DMSO) was added and cells were incubated for 20 minutes at room temperature. 0.8 μl of 16 mM Brilliant Black BN prepared in D-PBS was added yield a 1.6 mM final concentration of Brilliant Black BN. The fluorescence was immediately read on a Molecular Devices Tetra fluorescent plate reader, using an excitation wavelength of 530 nm and measuring the emission at 580 nm while employing a custom filter (Omega Optical) whose transmission wavelength was 580 nm±10 nm.

Structure (SMILES): O=[N+]([O-])c1ccc(O)c([N+](=O)[O-])c1 [2,4-DNP, 2,4-dinitrophenol]
- EC50 ([1]; CHO-K1, 0.5 h): 5 µM

Structure (SMILES): CO[C@@H]1C[C@@H](C[C@H]2CC[C@H](C)[C@H]([C@@H](C)C(=O)O)O2)O[C@]2(O[C@](C)([C@H]3CC[C@@](C)([C@@H]4O[C@@H]([C@H]5O[C@@](O)(CO)[C@H](C)C[C@@H]5C)C[C@@H]4C)O3)C[C@H]2C)[C@@H]1C [Nigericin, nigericin]
- Effect at greater levels of nigericin [1]: toxicity and membrane depolarization
- Effect on mitochondrial membrane potential ([1]; adherent CHO—K1 cells, 384 well plate, increasing amounts of nigericin): caused hyperpolarization of the mitochondrial membrane

Structure (SMILES): N#CC(C#N)=NNc1cccc(Cl)c1 [CCCP, carbonylcyanide m-chlorophenylhydrazone]
- EC50 ([1]; 0.5 h, adherent CHO—K1 cells, 384 well plate, 30 minutes incubation, TMRM fluorescence): 0.25 µM
- EC50 [2]: 0.18 µM
